This is an account of results in US7053052B2, “Therapies involving mutated heat shock transcription factor” (priority 1997, dated 2006).

Data set [1] relates to HepG2 cells. Kind of data set: Mortality from simulated ischemia (LDH release). It is filed as cell-based, human.
Method: After heat treatment, cultures were incubated overnight at 37° C. When trypan blue exclusion was used as the criterion for cell survival, cells (unattached and attached) were harvested, and trypan blue-excluding cells were counted in a hemocytometer. In some experiments, cell killing was estimated by the lactate dehydrogenase (LDH) release assay, using the LDH Assay Kit from Sigma Corp. (St. Louis, Mo.). To quantify detachment from the substratum, cultures were washed three times with prewarmed DMEM, and the number of cells remaining on dishes were determined using a hemocytometer. […] Ischemic conditions were simulated as described previously (Mestril, R. et al., J. Clin. Invest., 93:759–767 (1994)). Briefly, cells were placed in slightly hypotonic HBSS (1.3 mM CaCl2, 5 mM KCl, 0.3 mM KH2PO4, 0.5 mM MgCl2, 0.4 mM MgSO4, 69 mM NaCl, 4 mM NaHCO3, 0.3 mM Na2HPO4) without glucose or serum, and made hypoxic for 4–6 hours at 37° C. Control cells were left under normoxic conditions for the same period of time. Hypoxia was achieved by using an air-tight jar from which oxygen was removed by displacement with argon. After 10 minutes of gas exchange, the oxygen concentration was <0.2%. Hypoxia was maintained using the oxygen-consuming GasPak System from BBL Microbiology Systems (Cockeysville, Md.).
Data set [2] relates to HepG2 cells. Kind of data set: Mortality from exposure to cyclophosphamide (LDH release, mortality). The conditions noted are these: cyclophosphamide 20 mM. (LDH leaks from cells whose membrane has failed.)
Data set [3] has as its system HeLa-CAT cells. Kind of data set: Cell survival after heat shock, count of β-galactosidase-positive cells. The class given is cell-based, human. The conditions noted are these: heat shock 48° C./10 minutes; p<0.05. The method, then:
To also assess the effect of expression of HSF1(−) on stress-induced cell killing, cultures were transfected with a beta-galactosidase gene or co-transfected with the beta-galactosidase gene and the HSF1(−) construct.
Transfected cultures were subjected to a severe heat shock (48° C./10 minutes; about 75% cell survival) or left untreated, and β-galactosidase-positive cells were counted the following day. Untreated, singly and doubly transfected cultures contained similar number of β-galactosidase-expressing cells. In the heat-shocked cultures, the presence of HSF1(−) increased cell killing by about 60% (p<0.05). Thus, the increase in Hsp levels occurring as a consequence of a stressful event has a significant, immediate protective effect.

Data set [4] has as its system HeLa-CAT cells. Kind of data set: Recovery of translation after heat shock (3H-leucine pulse-labeling). It is filed as cell-based, human. The conditions noted are these: contribution of untransfected cells subtracted. The method, then:
In a typical experiment, parallel HeLa-CAT cultures in 60 mm dishes (more than 70% confluent) were transfected with 0.75 ug of EGFP construct and 2.25 ug of HSF1(+) or HSF1(−) construct and 15 ul Lipofectamine™. Before exposing the cultures to heat shock about 36 hours post transfection, cells were replated (to achieve about 70% confluence). Note that in some experiments, HSF1(+) was delivered by infection with an adenoviral vector rather than by transfection. Cultures were exposed to a 42° C./1 hour heat shock and then returned to 37° C. Rates of protein synthesis before, during, and at different times after a subsequent, more severe heat shock were determined by pulse-labeling of cells with ^3H-leucine. For labeling, cultures were washed two times with prewarmed PBS, and one ml of labeling medium (leucine-free DMEM with 2% FBS and 65 uCi of ^3H-leucine (179 Ci/mmolc)) was added. […] Relative rates of protein synthesis were calculated as cpm/ug protein. […]
To find out whether HSF1(−) could function as a negatively acting factor, HeLa-CAT cells containing integrated copies of an hsp70B-chloramphenicol acetyltransferase (CAT) gene were co-transfected with an HSF1(−) and an EFGP-expressing construct. […] Rates of protein synthesis were assessed by pulse-labeling cells with ^3H-leucine. […]

human HSF1d202–316 [HSF1(+)]: the “decrease of mortality from simulated ischemia” value with HepG2 cells [1] was “more than 50%”. Also, the “reduction of mortality by LDH leakage assay” value in the data set with HepG2 cells [2] was 43%. The “reduction of cyclophosphamide-caused mortality” value in the data set with HepG2 cells [2] (24 hour) is recorded as 55%.

human HSF1d453–523 [HSF1(−)]: the “increase in cell killing” value with HeLa-CAT cells [3] is “about 60%”. The “corrected rate of protein synthesis one hour after heat shock” value in the data set with HeLa-CAT cells [4] (first experiment) is on record as “about 5%”; in the data set with HeLa-CAT cells [4] (second experiment), roughly 24%.
